The values below come from US6706947B2, “Method for screening for agents against cancer using an immunosuppression animal model” (Fremantle Hospital, priority 1996, dated 2004).

Values after ≈ are worked out from the molar mass of the structure shown.

The conditions of data set [1]: literature (Borel, 1989; Reynolds et al, 1992; Eichenberger et al, 1989a); cited from earlier work.
Data set [2] can be described thus: Steady-state plasma concentrations of ketoconazole in sheep (hplc). It counts as in vivo. The method, then:
Following the first dose on the first study day, venous blood samples (5 ml, anticoagulated with EDTA) were collected at 0.17, 0.33, 0.5, 0.75, 1, 2, 3, 4, 6, 8, 12, 15, 22, 27 and 32 h. […] Ketoconazole administration was continued throughout the latter blood sampling period.
Some blood samples taken on days 18-23 were centrifuged to yield plasma which was frozen at −20° C. until analysed for ketoconazole by a specific hplc method. Aliquots of plasma (0.1 ml) were vortexed vigorously with 1 ml acetonitrile (containing 8 mg of fluoxetine hydrochloride as internal standard) for 15 sec. The mixture was centrifuged at 1200 g for 10 min to sediment proteins, 0.5 ml of the supernatant was aspirated, transferred to a clean tube and evaporated to dryness at 50° C. using dry N2. The extract was reconstituted in 0.2 ml of hplc mobile phase and 0.02 ml aliquots were injected onto the hplc column. The hplc system consisted of a Merck RP Select B C18 column (25 cm×4.6 mm id), a mobile phase of 55% acetonitrile in 0.01% v/v H3PO4 and 0.01% W/V NaCl. The solvent was pumped at a flow rate of 1.5 ml/min and eluting compounds were detected by their UV absorbence at 210 nm.

The subject of the next data set is B16M. Conditions: day 3 in culture, MTT.
In another data set the test system is HT-29. Conditions: HT-29, day 3 in culture, MTT.
The subject of a further data set is SKMEL. Conditions: day 3 in culture, MTT.

Procedure for B16M: (§1) All tumour cell lines were incubated at 37° C./5%CO2/95% humidity and the medium was changed every 3 to 4 days. For passage and assay, cells were detached with 0.1% w/v trypsin/0.02% w/v versene (CSL).
(§2) The assay was performed according to the method of Mosmann (1983). […] 20 μl of MTT (stock at 5 mg/ml in PBS) was added to each well and the plates incubated at 37° C. for 4 hours. 100 ul of 0.04N HCl-isopropanol was then added to each well and the dark blue formazan-crystals were dissolved by mixing. Optical densities (ODs) were determined at 590 nm using a Titertek multiscan photometer (Flow Labs.) and were directly proportional to cell growth (Mosmann, 1983).
(§3) Tumour cell growth inhibition was assessed using the MTT assay.
(§4) If the values fall in a straight line the effects are additive, and if the points form a concave curve, the effects are synergistic. […] The fractional survival of the individual reagents is determined and the two values are multiplied together. The product of the two values becomes the expected cell survival, and is compared with the observed fractional survival when the two reagents are tested together. […]
Procedure for HT-29: as §1, §2, §3, §4
Procedure for SKMEL: as §1, §2, §3, §4

As to `CC(=O)N1CCN(c2ccc(OCC3COC(Cn4ccnc4)(c4ccc(Cl)cc4Cl)O3)cc2)CC1` (centres unmarked) [Ketoconazole], the “Maximum therapeutic plasma concentration” value in data set [1] is 0.10 µg/mL. For the same molecule, the “Steady-state concentration of ketoconazole in plasma (mean of trough samples)” value amounted to 2.6 mg/L in data set [2] (sheep 14, days 18-23, ketoconazole 10 mg/kg po twice daily); 2.19 mg/L in data set [2] (sheep 15, days 18-23, ketoconazole 10 mg/kg po twice daily); 1.63 mg/L in data set [2] (sheep 16, days 18-23, ketoconazole 10 mg/kg po twice daily); 3.04 mg/L in data set [2] (sheep 17, days 18-23, ketoconazole 10 mg/kg po twice daily). The “ED50 (± SD)” value with B16M stood at 18.2 ± 3.9 µg/mL (≈ 34.2 µM); in the data set on HT-29, 12.7 ± 2.0 µg/mL (≈ 23.9 µM); in the data set with SKMEL it was 28.3 ± 1.7 µg/mL (≈ 53.3 µM).
